Measured values published in US20130224223A1, “Compositions and Methods for Treating Neurological Disorders” (GEORGIA REGENTS UNIVERSITY, priority 2007, published 2013).

Assays:
[1] = system: prefrontal cortical slices; test: eIPSC recording in prefrontal cortical slices; assay type: cell-based, mice
Protocol: Transverse prefrontal cortical slices (0.3 mm) were prepared from P28-P36 mice using a Vibroslice (Leica VT 10005) in the ice-cold solution, which contained 2.5 mM KCl, 1.25 mM NaH2PO4, 10 mM MgSO4, 0.5 mMCaCl2, 26 mM NaHCO3, 10 mM glucose, and 230 mM sucrose. Slices were allowed to recover for at least 2 hr in ACSF (1 hr at 34° C. followed by 1 hr at 22° C.) in a solution containing 126 mM NaCl, 2.5 mM KCl, 1.25 mM NaH2PO4, 2 mM MgSO4, 2 mM CaCl2, 26 mM NaHCO3, and 10 mM glucose. Slices were placed in the recording chamber and superfused (1.5 ml/min) with ACSF at 34° C. All solutions were saturated with 95% O2/5% CO2. Neurons were visualized with an IR-sensitive CCD camera with a 403 water-immersion lens (Zeiss, Axioskop2 Fsplus) and recorded using whole-cell voltage-clamp techniques (MultiClamp 7008 Amplifier, Digidata 1320A analog-to-digital converter) and pClamp 9.2 software (Axon Instruments). Glass pipettes were filled with the solution containing 125 mM Cs-gluconate, 10 mM CsCl, 1 mM MgCl2, 10 mM HEPES, 1 mM EGTA, 0.1 mM CaCl2, 10 mM sodium phosphocreatine, 4 mM Mg-ATP, 0.3 mM GTP, 0.2 mM leupeptin, and 5 mM lidocaine N-ethylchloride (QX314) (pH 7.2, with the osmolarity adjusted to 280 mOsm with sucrose). The resistance of pipettes was 2-3 MΩ For mIPSC recording, QX314 was omitted in the pipette filling solution, whereas […] was included in the superfusing solution. eIPSCs were generated with a two-concentric bipolar stimulating electrode ([…] pole separation; FHC, ME) positioned about […] from the neuron under recording. Single or paired pulses of 0.2 ms were delivered at 0.1 Hz and synchronized using a Mater-8 stimulator (A.M.P.I). The holding potential for both mIPSCs and eIPSCs was −65 mV. All experiments were done at 34° C. in the presence of 6-cyano-7-nitroquinoxaline-2,3-dione (CNQX, […]) and AP-5 ([…]) to block AMPA/NMDA receptors. Data were collected when series resistance fluctuated within 15% of initial values (8-15 MU), they were filtered at 2 kHz, and they were sampled at 10 kHz.

cortical slices = test: [3H]GABA release from prefrontal cortical slices; assay type: cell-based, mice; details: 20 mM KCl
Protocol: FIG. 2A is a line graph of [^3H]GABA release fraction/total fraction versus time (mins). Cortical slices were preloaded with [^3H]GABA for 30 min in the presence of b-alanine (1 mM), an inhibitor of [^3H]GABA uptake by glial cells, aminooxyacetic acid (0.1 mM), an inhibitor of GABA degradation, and nipecotic acid (1 mM), an inhibitor of the GABA transporter in neurons. Basal and depolarization (20 mM KCl)-evoked release of [^3H]GABA were monitored sequentially. Controls (open circles) and NRG1 (closed circles). FIG. 2B is a line graph of percent [^3H]GABA release versus NRG1 concentration (nM). Basal (open circles) K+ evoked (closed circles). […] FIG. 2D is a line graph of cumulative counts versus mIPSC amplitude (pA). Controls (open circles) and NRG1 (closed circles). FIG. 2E is a line graph of cumulative counts versus mIPSC interevent interval (ms). Controls (open circles) and NRG1 (closed circles). FIG. 2F is a bar graph of mIPSC (percent) in control and NRG1 treated pyramidal neurons in prefrontal cortical slices (n=12). Amplitude (clear) and Frequencies (hatched). FIG. 2G is a bar graph of percent eIPSC amplitude in prefrontal cortical slices treated with NRG1 versus control or washout. n=12, *p<0.01. Representative eIPSCs of control, NRG1-treated, or NRG1-treated/washed slices are shown on top. FIG. 2H is a line graph of percent eIPSC amplitude versus NRG1 (nM). n=6, *p<0.05, **p<0.01. FIG. 2I is a bar graph of K^+ evoked [^3H]GABA release (percent) (left axis, clear rectangles) and eIPSC amplitude (percent) (right axis, hatched rectangles) in prefrontal cortical slices treated with NRG1, denature NRG1, or BDNF. n=8 for [^3H]GABA release; for eIPSCs, n=6 for control, NRG1, and denatured NRG1, and n=4 for BDNF. *p<0.05, #p<0.05; **p<0.05, ##<0.01.
NRG1 may regulate GABAergic neurotransmission. To test this hypothesis, the effects of NRG1 on GABA release in cortical slices were determined by both biochemical and electrophysiological approaches. Basal [^3H]GABA release was low, at a rate of 3.75±0.35% (n=8) of total radioactivity per 10 min (FIG. 2A). Treatment of slices with 20 mM KCl, a condition known to depolarize neurons, increased [^3H]GABA release by 2.5-3.5 folds within 10 min (FIG. 2A). NRG1 had no effect on basal [^3H]GABA release; by contrast, it increased depolarization-evoked GABA release in a dose-dependent manner (FIG. 2B). […] Furthermore, the NRG regulation remained unchanged in the presence of antagonists of metabotropic glutamate receptors, cholinergic receptors, serotonin receptors, adrenergic receptors and/or dopamine receptors. As a control, BDNF decreased depolarization-evoked GABA release and eIPSCs in cortical slices, in agreement with earlier studies (Canas, et al., Brain Res, 1016:72-78 (2004); Frerking, et al., J Neurophysiol, 80:3383-3386 (1998)).

[2] = substance alone, no other exogenous agent, AG1478/AG879 5 mM [sic]

SMILES: COc1cc2ncnc(Nc3cccc(Cl)c3)c2cc1OC [AG1478]
- evoked IPSCs (eIPSCs) [1, 2]: decreased
- NRG1 potentiation of eIPSCs ([1]; substance given with exogenous NRG1 (5 nM)): prevented
- depolarization-evoked [3H]GABA release (cortical slices; [2]): decreased
- NRG1-enhanced evoked GABA release (cortical slices; substance given with exogenous NRG1): prevented
